According to patent US20040028714A1, “Composition having insect repellent characteristics” (priority 2000, published 2004):
“And” between values parts separate entries of the source, which are not always exact repeats. Identical values can stand only once.

Key:
[1] = test system: Casemaking Clothes Moths (Tinea pellionella); experiment: Adult clothes moth repellency on treated woolen cloth (Example 5); assay type: in vivo; settings: fabric soaked in 20 g/L in ethanol, 2 days after moth introduction; for Moths Present, Treated Section, Total (%) / Moths Present, Untreated Section, Total (%): share of moths found in the two boxes; for The Number of Moths Present, Treated Section / The Number of Moths Present, Untreated Section: single replicates (n = 50); for The Number of Moths Present, Treated Section, Total / The Number of Moths Present, Untreated Section, Total: total of 4 replicates
Protocol: The effectiveness of compound 2 (example 1) to reduce the presence of cloth moths on woolen cloth was determined and was directly compared to the repellency of the well known moth repellents Citronellol and Farnesol.
The study was conducted in an air conditioned laboratory at a temperature of 22°±2° C. under a normal day/night cycle, using Casemaking Clothes Moths (Tinea pellionella) of mixed sex and age. The study is conducted over a 5 days period and the repellent effectiveness was assessed as follows:
Adults—2 days after insect introduction
A 10 cm×10 cm square of black woolen fabric free of bactericide) was soaked in a solution of the candidate repellent in ethanol at 20 g/L, squeezed and allowed to dry. The woollen square was placed in a small box (5 cm×10 cm×10 cm) which was open at one end to allow entry of adult clothes moth.
A similar square of fabric treated with ethanol (control) was placed in another box of the same size.
These two boxes were placed in an aquarium and 50 mixed sex adult moths were added. These were provided with food and water and left for 5 days.
At the end of 2 days the number of adult moths in each box was counted.
The above was repeated 3 times to provide 4 replicates.

[2] = test system: Black Ants (Ochetellus sp); experiment: Ant repellency on half-treated formica (Example 4); assay type: in vivo; settings: ants, 20 mg/m^2 on formica
Protocol: The effectiveness of compound 2 (example 1) as an insect repellent was determined using ants exposed to a formica surface partially treated/partially untreated with compound 2, and was directly compared to the repellency of the well known insect repellents Farnesol and Dihydrofarnesal.
The study was conducted in an air conditioned laboratory at a temperature of 22°±2° C. under a normal day/night cycle, using Black Ants (Ochetellus sp) of mixed sex and age. The study ws conducted over a 3 day period and the repellent effectiveness assessed 1, 2 and 3 days after ant introduction.
One half of a rectangle of formica 40 cm×30 cm was treated at 20 mg/m^2 with the test compounds. This was achieved by soaking a paper wipe (Rag On A Roll approximately 20 cm×20 cm) in a solution of the test compound in ethanol, squeezing out the excess liquid and wiping over the surface to give the required coverage. This was checked by weighing the cloth after application. The surface was allowed to dry. The other half was wiped with ethanol alone (untreated surface).
The treated formica rectangle was placed on the bench and a glass ring (diameter 20 cm) was placed on the rectangle. This had been treated with fluon to prevent ant escape.
A small plastic container 2 cm in diameter was placed on the formica, one on the treated surface and one on the untreated surface. The plastic container placed on the treated surface had repellent applied in the same way as the treated formica. The plastic container on the untreated surface was wiped with ethanol.
24 hours after treatment (1 day) 20 ants were added to the centre of the formica. No food and water was supplied for these ants. 2 hours after this the number of ants on the treated and untreated surfaces was counted.
The above was repeated 3 times to provide a total of 4 replicates.
The above was repeated at 2 days and 3 days. New ants were used at each time period.

SMILES | Moths Present, Treated Section, Total (%) [1] | Moths Present, Untreated Section, Total (%) [1] | The Number of Moths Present, Treated Section [1] | The Number of Moths Present, Untreated Section [1] | The Number of Moths Present, Treated Section, Total [1] | The Number of Moths Present, Untreated Section, Total [1] | Percentage Dead ([2]; 1 day after treatment) | Percentage Present, Treated Section ([2]; 1 day after treatment) | Percentage Present, Untreated Section ([2]; 1 day after treatment) | Percentage Dead ([2]; 2 days after treatment) | Percentage Present, Treated Section ([2]; 2 days after treatment) | Percentage Present, Untreated Section ([2]; 2 days after treatment) | Percentage Dead ([2]; 3 days after treatment) | Percentage Present, Treated Section ([2]; 3 days after treatment) | Percentage Present, Untreated Section ([2]; 3 days after treatment) | Percentage Dead, Average ([2]; average of days 1, 2 and 3) | Percentage Present, Untreated Section, Average ([2]; average of days 1, 2 and 3)
CC(C)=CCCC(C)CCO (centres unmarked) [Citronellol] | (23.9%) | (76.1%) | 7 and 0 and 5 and 14 | 20 and 12 and 26 and 25 | 26 | 83 | – | – | – | – | – | – | – | – | – | – | –
CC(C)=CCCC(C)=CCCC(C)=CCO [Farnesol, 3,7,11-Trimethyl-2,6,10-dodecatrien-1-ol] | (26.0%) | (74.0%) | 9 (2×) and 4 and 5 | 18 and 19 (2×) and 21 | 27 | 77 | 0% | 20.0% | 80.0% | 0% | 10.0% | 90.0% | 0% | 20.0% | 80.0% | 0% | 83.3%
